Laboratory results: patent publication US20210017295A1, “BISPECIFIC BINDING AGENTS AND USES THEREOF” (MEMORIAL SLOAN KETTERING CANCER CENTER, priority 2018, published 2021)
Values joined by “and” are separate entries in the source; they are usually repeats but may differ in a detail not shown here. Identical values can stand only once.

Assays:
[1] = system: s.c. HER2(−) MDA-MB-468 tumors; type: in vivo, mouse; settings: 24 h p.i.
[2] = system: s.c. HER2(+) BT-474 tumors; test: Dosimetry calculations (estimated absorbed doses, therapeutic index); settings: optimized anti-HER2-DOTA-PRIT, from 1.0-336 h biodistribution
Text: For each tissue, the non-decay-corrected time-activity concentration data were fit using Excel to a 1-component, 2-component, or more complex exponential function as appropriate, and analytically integrated to yield the cumulated activity concentration per unit administered activity (MBq-h/g per MBq). The ^177Lu equilibrium dose constant for non-penetrating radiations (8.49 g-cGy/MBq-h) was used to estimate the tumor-to-tumor and select organ-to-organ self-absorbed doses, assuming complete local absorption of the ^177Lu beta rays only, and ignoring the gamma ray and non-self dose contributions.

[3] = Toxicity assessment: weight monitoring and removal criteria; type: in vivo, mouse
[4] = Hematology panel; type: in vivo, mouse; settings: small tumors; single-cycle study, 55.5 MBq; ~85 d
[5] = system: HER2(+) BT-474 tumors; test: Biodistribution with modified BsAb / clearing agent time intervals (same-day PRIT); type: in vivo, mouse; settings: for average blood uptake / average tumor uptake: 24 h p.i.
Method: During a second set of experiments (Table 31), the BsAb timing interval was varied, as well as the timing interval between the clearing agent and ^177Lu-DOTA-Bn. All animals were sacrificed 24 hours-post-injection of ^177Lu-DOTA-Bn.

[6] = MDA-MB-468 HER2(−), PRIT + no CA, mean ± SEM
[7] = medium tumors, single-cycle, 33.3 MBq, ~200 d
[8] = small tumors, single-cycle study, 55.5 MBq, ~85 d
[9] = BsAb for 4 hours, then CA vehicle only (total BsAb circulation 8 hours)
[10] = Table 30 group 3 (increased clearing agent dose)

Nc1ccc(CC2CN(CC(=O)[O-])CCN(CC(=O)[O-])CCN(CC(=O)[O-])CCN2CC(=O)[O-])cc1.[177Lu+3] (stereo not shown) [^177Lu-DOTA-Bn]
tumor uptake in HER2(−) tumors vs HER2(+) BT-474 tumors, fold lower ([1]; PRIT, no CA): ~7 fold
^177Lu activity in Blood [1, 6]: 6.59 ± 1.31 % IA/g
^177Lu activity in Bone [1, 6]: 0.62 ± 0.17 % IA/g
^177Lu activity in Heart [1, 6]: 1.78 ± 0.29 % IA/g
^177Lu activity in Kidneys [1, 6]: 2.39 ± 0.54 % IA/g
^177Lu activity in Large Int. [1, 6]: 0.35 ± 0.06 % IA/g
^177Lu activity in Liver [1, 6]: 2.69 ± 0.35 % IA/g
^177Lu activity in Lungs [1, 6]: 2.44 ± 0.42 % IA/g
^177Lu activity in Muscle [1, 6]: 0.50 ± 0.14 % IA/g
^177Lu activity in Small Int. [1, 6]: 0.61 ± 0.11 % IA/g
^177Lu activity in Spleen [1, 6]: 1.06 ± 0.16 % IA/g
^177Lu activity in Stomach [1, 6]: 0.27 ± 0.04 % IA/g
^177Lu activity in Tumor [1, 6]: 2.75±0.17 % IA/g
Estimated absorbed dose, Blood [2]: 1.4 cGy/MBq
Estimated absorbed dose, Bone [2]: 0.7 cGy/MBq
Estimated absorbed dose, Heart [2]: 0.4 cGy/MBq
Estimated absorbed dose, Kidneys [2]: 5.6 cGy/MBq
Estimated absorbed dose, Large Intestine [2]: 0.8 cGy/MBq
Estimated absorbed dose, Liver [2]: 3.3 cGy/MBq
Estimated absorbed dose, Lung [2]: 1.3 cGy/MBq
Estimated absorbed dose, Muscle [2]: 0.9 cGy/MBq
Estimated absorbed dose, Small Intestine [2]: 0.4 cGy/MBq
Estimated absorbed dose, Spleen [2]: 0.3 cGy/MBq
Estimated absorbed dose, Stomach [2]: 0.3 cGy/MBq
Estimated absorbed dose, Tumor [2]: 39.9 cGy/MBq
animals removed: Discovered deceased [3, 7]: 1/5
animals removed: Tumor burden [3, 7]: 4/5
animals removed: Weight loss [3, 7]: 0/5
animals removed: Discovered deceased [3, 8]: 0/5
animals removed: Tumor burden [3, 8]: 0/5
animals removed: Weight loss [3, 8]: 0/5
HGB [4]: 13.1 g/dL and 12.9 g/dL and 14.3 g/dL and 14.9 g/dL and 14.0 g/dL
RBC [4]: 8.22 M/μL and 7.74 M/μL and 8.54 M/μL and 8.80 M/μL and 8.32 M/μL
Tumor:Blood ratio [5, 9]: ~3.2
blood uptake [5, 9]: 12.07 % ID/g
tumor uptake [5, 9]: ~40 % ID/g
average blood uptake ([5]; Table 30 group 1): 0.06
average tumor uptake ([5]; Table 30 group 1): 11.62
average blood uptake [5, 10]: 0.03
average tumor uptake [5, 10]: 4.14
